Test results: ChEMBL document CHEMBL1201862, “PubChem BioAssay data set” (2004)
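Exposure lasted 48 hours, with cells grown in 96-well plates and compounds tested at five concentrations. At the GI50, growth is halved.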 The source made the active and inactive calls. No stated cut-off is given here; in the data, active = GI50 up to about 1.1 µM and inactive = higher.

What was measured:
Test in all cases: DTP human tumour cell line panel, 48 h
[1] = test system: SN12C
[2] = test system: M14
[3] = test system: SW-620
[4] = test system: CAKI-1
[5] = test system: EKVX
[6] = test system: LOX IMVI
[7] = test system: SNB-19
[8] = test system: ACHN
[9] = test system: LXFL 529
[10] = test system: HCC 2998
[11] = test system: IGROV-1
[12] = test system: RPMI-8226
[13] = test system: 786-0
[14] = test system: SK-OV-3
[15] = test system: Hs-578T
[16] = test system: PC-3
[17] = test system: T47D
[18] = test system: MDA-N
[19] = test system: MCF7
[20] = test system: BT-549

CCC(C)CN1C(=O)NC(Cc2ccccc2)C1=O (stereo not given)
GI50 [1]: > 100 µM (inactive) | GI50 [2]: > 100 µM (inactive) | GI50 [3]: > 100 µM (inactive) | GI50 [4]: > 100 µM (inactive) | GI50 [5]: > 100 µM (inactive) | GI50 [6]: > 100 µM (inactive) | GI50 [7]: > 100 µM (inactive) | GI50 [8]: > 100 µM (inactive) | GI50 [9]: > 100 µM (inactive) | GI50 [10]: > 100 µM (inactive)

O=C(Nc1ccc(Cl)cc1Cl)/C(Cl)=C1/Sc2ccccc2NC1=O
GI50 [11]: 28.6 µM (inactive) | GI50 [1]: 28.4 µM (inactive) | GI50 [2]: 29.2 µM (inactive) | GI50 [3]: 33.7 µM (inactive) | GI50 [12]: 24 µM (inactive) | GI50 [4]: 41.2 µM (inactive) | GI50 [5]: 58.1 µM (inactive) | GI50 [6]: 40.6 µM (inactive) | GI50 [7]: 34.5 µM (inactive) | GI50 [8]: 38 µM (inactive) | GI50 [9]: 22.2 µM (inactive) | GI50 [13]: 45.3 µM (inactive) | GI50 [14]: 20.8 µM (inactive) | GI50 [10]: 32 µM (inactive)

CC(C)=CC(=O)Cc1nc2ccccc2[nH]c1=O
GI50 [11]: > 100 µM (inactive) | GI50 [1]: > 100 µM (inactive) | GI50 [2]: > 100 µM (inactive) | GI50 [3]: > 100 µM (inactive) | GI50 [12]: > 100 µM (inactive) | GI50 [4]: 76.7 µM (inactive) | GI50 [5]: 47.3 µM (inactive) | GI50 [6]: > 100 µM (inactive) | GI50 [7]: > 100 µM (inactive) | GI50 [8]: > 100 µM (inactive) | GI50 [9]: > 100 µM (inactive) | GI50 [13]: 82.4 µM (inactive) | GI50 [14]: > 100 µM (inactive) | GI50 [10]: > 100 µM (inactive)

COC(=O)C(/C(=N/N)C(=O)Nc1cccc(O)c1)c1nc2ccccc2nc1O (stereo not given)
GI50 [15]: > 100 µM (inactive) | GI50 [11]: > 100 µM (inactive) | GI50 [1]: > 100 µM (inactive) | GI50 [2]: > 100 µM (inactive) | GI50 [3]: > 100 µM (inactive) | GI50 [12]: > 10 µM (inactive) | GI50 [4]: > 100 µM (inactive) | GI50 [5]: > 100 µM (inactive) | GI50 [6]: > 100 µM (inactive) | GI50 [7]: > 100 µM (inactive) | GI50 [8]: > 100 µM (inactive) | GI50 [16]: > 100 µM (inactive) | GI50 [17]: > 100 µM (inactive) | GI50 [13]: > 100 µM (inactive) | GI50 [14]: > 100 µM (inactive) | GI50 [18]: > 100 µM (inactive) | GI50 [19]: > 100 µM (inactive) | GI50 [10]: > 100 µM (inactive) | GI50 [20]: > 100 µM (inactive)

C#CCC1(C(=O)OCC)C(=O)c2ccccc2N(C)C1=O (stereo not given)
GI50 [11]: > 100 µM (inactive) | GI50 [1]: 67.9 µM (inactive) | GI50 [2]: > 100 µM (inactive) | GI50 [3]: > 100 µM (inactive) | GI50 [12]: 68.4 µM (inactive) | GI50 [4]: 35.6 µM (inactive) | GI50 [5]: > 100 µM (inactive) | GI50 [6]: > 100 µM (inactive) | GI50 [7]: 45.4 µM (inactive) | GI50 [8]: 93.5 µM (inactive) | GI50 [9]: > 100 µM (inactive) | GI50 [14]: > 100 µM (inactive)

C/C(CCn1[nH]c(=O)ccc1=O)=N\NC(=O)C(=O)NN
GI50 [11]: > 100 µM (inactive) | GI50 [1]: > 100 µM (inactive) | GI50 [2]: > 100 µM (inactive) | GI50 [3]: > 100 µM (inactive) | GI50 [12]: > 100 µM (inactive) | GI50 [4]: > 100 µM (inactive) | GI50 [5]: > 100 µM (inactive) | GI50 [6]: > 100 µM (inactive) | GI50 [7]: > 100 µM (inactive) | GI50 [8]: > 100 µM (inactive) | GI50 [9]: > 100 µM (inactive) | GI50 [13]: > 100 µM (inactive) | GI50 [14]: > 100 µM (inactive) | GI50 [10]: > 100 µM (inactive)

S=C(N/N=C/c1ccccn1)N1CC2CCC(CC2)C1
GI50 [15]: 0.299 µM (active) | GI50 [11]: < 0.01 µM (active) | GI50 [1]: < 0.0216 µM (active) | GI50 [2]: < 0.01 µM (active) | GI50 [3]: < 0.01 µM (active) | GI50 [12]: < 0.01 µM (active) | GI50 [4]: < 0.01 µM (active) | GI50 [5]: < 0.0395 µM (active) | GI50 [6]: < 0.01 µM (active) | GI50 [7]: 0.161 µM (active) | GI50 [8]: < 0.01 µM (active) | GI50 [16]: < 0.01 µM (active) | GI50 [17]: < 0.01 µM (active) | GI50 [13]: < 0.01 µM (active) | GI50 [14]: < 0.01 µM (active) | GI50 [18]: 0.0188 µM (active) | GI50 [19]: < 0.01 µM (active) | GI50 [10]: 0.0895 µM (active) | GI50 [20]: < 0.01 µM (active)

CCOC(=O)C1CCCCN1CCc1c[nH]c2ccccc12 (stereo not given)
GI50 [15]: > 100 µM (inactive) | GI50 [11]: > 100 µM (inactive) | GI50 [1]: > 100 µM (inactive) | GI50 [2]: > 100 µM (inactive) | GI50 [3]: > 100 µM (inactive) | GI50 [12]: 84.7 µM (inactive) | GI50 [4]: > 100 µM (inactive) | GI50 [5]: > 100 µM (inactive) | GI50 [6]: > 100 µM (inactive) | GI50 [7]: > 100 µM (inactive) | GI50 [8]: > 100 µM (inactive) | GI50 [16]: > 100 µM (inactive) | GI50 [17]: 32.5 µM (inactive) | GI50 [13]: > 100 µM (inactive) | GI50 [14]: > 100 µM (inactive) | GI50 [18]: > 100 µM (inactive) | GI50 [19]: > 100 µM (inactive) | GI50 [10]: > 100 µM (inactive) | GI50 [20]: 75 µM (inactive)

O=C(O)[C@@H](NS(=O)(=O)c1ccc(F)cc1)c1ccccc1
GI50 [11]: > 100 µM (inactive) | GI50 [1]: > 100 µM (inactive) | GI50 [2]: > 100 µM (inactive) | GI50 [3]: > 100 µM (inactive) | GI50 [12]: > 100 µM (inactive) | GI50 [4]: > 100 µM (inactive) | GI50 [5]: > 100 µM (inactive) | GI50 [6]: > 100 µM (inactive) | GI50 [7]: > 100 µM (inactive) | GI50 [8]: > 100 µM (inactive) | GI50 [9]: > 100 µM (inactive) | GI50 [13]: > 100 µM (inactive) | GI50 [14]: > 100 µM (inactive) | GI50 [10]: > 100 µM (inactive)
